Results published in patent US11724992B2 (Novartis AG, priority 2017, dated 2023).

Tested on: IL-1β production in PMA-differentiated THP-1 cells
Test: IL-1β production in PMA-differentiated THP-1 cells stimulated with gramicidin (hTHP-1 assay, 2% fetal bovine serum; Procedures 1-3)
Assay type: cell-based, human
Settings: hTHP-1 assay containing 2% fetal bovine serum; class symbols; read-out: hTHP-1 IC50 (Average IC50 of compounds in hTHP-1 assay)
Method: The following protocol is suitable for testing the activity of the compounds disclosed herein.
Procedure 1: IL-1β Production in PMA-Differentiated THP-1 Cells Stimulated with Gramicidin
THP-1 cells were purchased from the American Type Culture Collection and sub-cultured according to instructions from the supplier. Cells were cultured in complete RPMI 1640 (containing 10% heat inactivated FBS, penicillin (100 units/ml) and streptomycin (100 μg/ml)), and maintained in log phase prior to experimental setup. Prior to the experiment, compounds were dissolved in dimethyl sulfoxide (DMSO) to generate a 30 mM stock. The compound stock was first pre-diluted in DMSO to 3, 0.34, 0.042 and 0.0083 mM intermediate concentrations and subsequently spotted using Echo550 liquid handler into an empty 384-well assay plate to achieve desired final concentration (e.g. 100, 33, 11, 3.7, 1.2, 0.41, 0.14, 0.046, 0.015, 0.0051, 0.0017 μM). DMSO was backfilled in the plate to achieve a final DMSO assay concentration of 0.37%. The plate was then sealed and stored at room temperature until required.
THP-1 cells were treated with PMA (Phorbol 12-myristate 13-acetate) (20 ng/ml) for 16-18 hours. On the day of the experiment the media was removed and adherent cells were detached with trypsin for 5 minutes. Cells were then harvested, washed with complete RPMI 1640, spun down, and resuspended in RPMI 1640 (containing 2% heat inactivated FBS, penicillin (100 units/ml) and streptomycin (100 μg/ml). The cells were plated in the 384-well assay plate containing the spotted compounds at a density of 50,000 cells/well (final assay volume 50 μl). Cells were incubated with compounds for 1 hour and then stimulated with gramicidin (5 μM) (Enzo) for 2 hours. Plates were then centrifuged at 340 g for 5 min. Cell free supernatant (40 μL) was collected using a 96-channel PlateMaster (Gilson) and the production of IL-1β was evaluated by HTRF (cisbio). The plates were incubated for 18 h at 4° C. and read using the preset HTRF program (donor emission at 620 nm, acceptor emission at 668 nm) of the SpectraMax i3x spectrophotometer (Molecular Devices, software SoftMax 6). A vehicle only control and a dose titration of CRID3 (100-0.0017 μM) were run concurrently with each experiment.
Procedure 2: IL-1β Production in PMA-Differentiated THP-1 Cells Stimulated with Gramicidin
THP-1 cells were purchased from the American Type Culture Collection and sub-cultured according to instructions from the supplier. Prior to experiments, cells were cultured in complete RPMI 1640 (containing 10% heat inactivated FBS, penicillin (100 units/ml) and streptomycin (100 μg/ml)), and maintained in log phase prior to experimental setup. Prior to the experiment THP-1 were treated with PMA (Phorbol 12-myristate 13-acetate) (20 ng/ml) for 16-18 hours. Compounds were dissolved in dimethyl sulfoxide (DMSO) to generate a 30 mM stock. On the day of the experiment the media was removed and adherent cells were detached with trypsin for 5 minutes. Cells were then harvested, washed with complete RPMI 1640, spun down, resuspended in RPMI 1640 (containing 2% heat inactivated FBS, penicillin (100 units/ml) and streptomycin (100 μg/ml). The cells were plated in a 384-well plate at a density of 50,000 cells/well (final assay volume 50 μl). Compounds were first dissolved in assay medium to obtain a 5× top concentration of 500 μM. 10 step dilutions (1:3) were then undertaken in assay medium containing 1.67% DMSO. 5× compound solutions were added to the culture medium to achieve desired final concentration (e.g. 100, 33, 11, 3.7, 1.2, 0.41, 0.14, 0.046, 0.015, 0.0051, […]). Final DMSO concentration was at 0.37%. Cells were incubated with compounds for 1 hour and then stimulated with gramicidin (5 μM) (Enzo) for 2 hours. Plates were then centrifuged at 340 g for 5 min. Cell free supernatant (40 μL) was collected using a 96-channel PlateMaster (Gilson) and the production of IL-1β was evaluated by HTRF (cisbio). […]

| SMILES | IC50 |
| --- | --- |
| Cc1oc(S(N)(=O)=NC(=O)Nc2c(C(C)C)cc(F)cc2C(C)C)cc1C(C)(C)O (single isomer, unassigned) [Example 79] | 0.008 to 0.04 µM |
| Cc1oc(S(N)(=O)=NC(=O)Nc2c(C(C)C)cc(F)cc2C(C)C)cc1C(C)(C)O (single isomer, unassigned) [Example 80] | 0.2 to 1 µM |
| Cc1oc(S(N)(=O)=NC(=O)Nc2c(C(C)C)cc(C#N)c(F)c2C(C)C)cc1C(C)(C)O (single isomer, unassigned) [Example 81] | 0.008 to 0.04 µM |
| Cc1oc(S(N)(=O)=NC(=O)Nc2c(C(C)C)cc(C#N)c(F)c2C(C)C)cc1C(C)(C)O (single isomer, unassigned) [Example 82] | 0.2 to 1 µM |
| Cc1sc(S(N)(=O)=NC(=O)Nc2c3c(cc4c2CCC4)CCC3)cc1C(C)(C)O (single isomer, unassigned) [Example 85] | 0.008 to 0.04 µM |
| Cc1sc(S(N)(=O)=NC(=O)Nc2c3c(cc4c2CCC4)CCC3)cc1C(C)(C)O (single isomer, unassigned) [Example 86] | 0.2 to 1 µM |
| CC(C)(O)c1ccc(S(N)(=O)=NC(=O)Nc2c3c(cc4c2CCC4)CCC3)c(F)c1 (single isomer, unassigned) [Example 87] | 0.04 to 0.2 µM |
| CC(C)(O)c1ccc(S(N)(=O)=NC(=O)Nc2c3c(cc4c2CCC4)CCC3)c(F)c1 (single isomer, unassigned) [Example 88] | 1 to 5 µM |
| CC(C)(O)c1csc(S(N)(=O)=NC(=O)Nc2c3c(c(Cl)c4c2CCC4)CCC3)c1 (single isomer, unassigned) [Example 89] | 0.008 to 0.04 µM |
| CC(C)(O)c1csc(S(N)(=O)=NC(=O)Nc2c3c(c(Cl)c4c2CCC4)CCC3)c1 (single isomer, unassigned) [Example 90] | 0.2 to 1 µM |
| CC(C)c1cc(C#N)c(F)c(C(C)C)c1NC(=O)N=S(N)(=O)c1cnc(C(C)(C)O)s1 (single isomer, unassigned) [Example 91] | 0.04 to 0.2 µM |
| CC(C)c1cc(C#N)c(F)c(C(C)C)c1NC(=O)N=S(N)(=O)c1cnc(C(C)(C)O)s1 (single isomer, unassigned) [Example 92] | 1 to 5 µM |
| CC(C)n1ccc(S(N)(=O)=NC(=O)Nc2c3c(cc4c2CCC4)CCC3)n1 (single isomer, unassigned) [Example 94] | 1 to 5 µM |
| CC(C)c1cc(OC(F)F)cc(C(C)C)c1NC(=O)N=S(N)(=O)c1sc(C(C)(C)O)cc1F (single isomer, unassigned) [Example 95] | < 0.008 µM |
| CC(C)c1cc(OC(F)F)cc(C(C)C)c1NC(=O)N=S(N)(=O)c1sc(C(C)(C)O)cc1F (single isomer, unassigned) [Example 96] | 0.2 to 1 µM |
| CCc1cc(OC(F)F)cc(C(C)C)c1NC(=O)N=S(N)(=O)c1cnc(C(C)(C)O)s1 (single isomer, unassigned) [Example 97] | 0.04 to 0.2 µM |
| CCc1cc(OC(F)F)cc(C(C)C)c1NC(=O)N=S(N)(=O)c1cnc(C(C)(C)O)s1 (single isomer, unassigned) [Example 98] | 5 to 30 µM |
| Cc1cc(C(C)(C)O)ccc1S(N)(=O)=NC(=O)Nc1c2c(cc3c1CCC3)CCC2 (single isomer, unassigned) [Example 99] | 0.2 to 1 µM |
| Cc1cc(C(C)(C)O)ccc1S(N)(=O)=NC(=O)Nc1c2c(cc3c1CCC3)CCC2 (single isomer, unassigned) [Example 100] | 5 to 30 µM |
| CC(C)c1cc(OC(F)F)cc(C2CC2)c1NC(=O)N=S(N)(=O)c1cnc(C(C)(C)O)s1 (single isomer, unassigned) [Example 101] | 0.04 to 0.2 µM |
| CC(C)c1cc(OC(F)F)cc(C2CC2)c1NC(=O)N=S(N)(=O)c1cnc(C(C)(C)O)s1 (single isomer, unassigned) [Example 102] | 1 to 5 µM |

| SMILES | IC50 |
| --- | --- |
| CC(C)c1cc(F)cc(C(C)C)c1NC(=O)N=S(N)(=O)c1cnc(C(C)(C)O)s1 (single isomer, unassigned) [Example 103] | 0.04 to 0.2 µM |
| CC(C)c1cc(F)cc(C(C)C)c1NC(=O)N=S(N)(=O)c1cnc(C(C)(C)O)s1 (single isomer, unassigned) [Example 104] | 1 to 5 µM |
| CC(C)c1cc(F)cc(C(C)C)c1NC(=O)N=S(N)(=O)c1cccc(C(C)(C)O)c1 (single isomer, unassigned) [Example 105] | 0.2 to 1 µM |
| CC(C)c1cc(F)cc(C(C)C)c1NC(=O)N=S(N)(=O)c1cccc(C(C)(C)O)c1 (single isomer, unassigned) [Example 106] | 5 to 30 µM |
| CC(C)c1c(F)c(C#N)cc(C2CC2)c1NC(=O)N=S(N)(=O)c1cnc(C(C)(C)O)s1 (single isomer, unassigned) [Example 107] | 5 to 30 µM |
| CC(C)c1c(F)c(C#N)cc(C2CC2)c1NC(=O)N=S(N)(=O)c1cnc(C(C)(C)O)s1 (single isomer, unassigned) [Example 108] | 0.04 to 0.2 µM |
| CC(C)c1cc(OC(F)F)cc(C(C)C)c1NC(=O)N=S(N)(=O)c1cnc(C(C)(C)O)s1 (single isomer, unassigned) [Example 111] | 0.04 to 0.2 µM |
| CC(C)c1cc(OC(F)F)cc(C(C)C)c1NC(=O)N=S(N)(=O)c1cnc(C(C)(C)O)s1 (single isomer, unassigned) [Example 112] | 5 to 30 µM |
| CC(C)(O)c1csc(S(N)(=O)=NC(=O)Nc2c3c(c(C#N)c4c2CCC4)CCC3)c1 (single isomer, unassigned) [Example 113] | 0.008 to 0.04 µM |
| CC(C)(O)c1csc(S(N)(=O)=NC(=O)Nc2c3c(c(C#N)c4c2CCC4)CCC3)c1 (single isomer, unassigned) [Example 114] | 1 to 5 µM |
| CC(C)(O)c1ncc(S(N)(=O)=NC(=O)Nc2c3c(c(OC(F)F)c4c2CCC4)CCC3)s1 (single isomer, unassigned) [Example 115] | 1 to 5 µM |
| CC(C)(O)c1ncc(S(N)(=O)=NC(=O)Nc2c3c(c(OC(F)F)c4c2CCC4)CCC3)s1 (single isomer, unassigned) [Example 116] | 0.04 to 0.2 µM |
| CN(C)Cc1ccc(S(N)(=O)=NC(=O)Nc2c3c(cc4c2CCC4)CCC3)cc1 (single isomer, unassigned) [Example 117] | 0.04 to 0.2 µM |
| CN(C)Cc1ccc(S(N)(=O)=NC(=O)Nc2c3c(cc4c2CCC4)CCC3)cc1 (single isomer, unassigned) [Example 118] | 1 to 5 µM |
| CC(C)(O)c1cc(F)c(S(N)(=O)=NC(=O)Nc2c3c(c(F)c4c2CCC4)CCC3)s1 (single isomer, unassigned) [Example 121] | 0.008 to 0.04 µM |
| CC(C)(O)c1cc(F)c(S(N)(=O)=NC(=O)Nc2c3c(c(F)c4c2CCC4)CCC3)s1 (single isomer, unassigned) [Example 122] | 0.2 to 1 µM |
| Cc1oc(S(N)(=O)=NC(=O)Nc2c3c(cc4c2CCC4C)CCC3)cc1C(C)(C)O (single isomer, unassigned) [Example 123] | 0.04 to 0.2 µM |
| Cc1oc(S(N)(=O)=NC(=O)Nc2c3c(cc4c2CCC4C)CCC3)cc1C(C)(C)O (single isomer, unassigned) [Example 124] | 1 to 5 µM |
| Cc1oc(S(N)(=O)=NC(=O)Nc2c3c(cc4c2CCC4C)CCC3)cc1C(C)(C)O (single isomer, unassigned) [Example 125] | 0.04 to 0.2 µM |
| Cc1oc(S(N)(=O)=NC(=O)Nc2c3c(cc4c2C(C)CC4)CCC3)cc1C(C)(C)O (single isomer, unassigned) [Example 126] | 1 to 5 µM |
| CC(C)(O)c1cccc(S(N)(=O)=NC(=O)Nc2c3c(c(F)c4c2CCC4)CCC3)c1 (single isomer, unassigned) [Example 128] | 0.2 to 1 µM |
